We go through one substance from publication PMC3522636, “4F Decreases IRF5 Expression and Activation in Hearts of Tight Skin Mice” (PLoS ONE, 2012).

The test system of assay [1] is IRF5. Briefly: Western blot, myocardial IRF5 expression. Conditions: 4F 1 mg/kg/d, sc. Format: in vivo, mouse. From the text: (§1) All experimental procedures and protocols involving mice were reviewed and approved by the Institutional Animal Care and Use Committee (IACUC) of the Medical College of Wisconsin (AUA#512). They also conformed to the rules in the Guiding Principles in the Care and Use of Animals published by the American Physiologic Society and the Guide for the Care and Use of Laboratory Animals published by OLAW. Male Tsk^−/+ and C57Bl/6J mice (6–8 weeks of age) were purchased from Jackson Laboratories (Bar Harbor, ME). Three groups of mice were studied; C57Bl/6J, Tsk^−/+, and Tsk^−/+ mice treated with 4F (1 mg/kg/d, sc) as published previously.
Hearts harvested from C57Bl/6J, Tsk^−/+ and 4F-treated Tsk ^−/+ mice were snap-frozen and stored at −80°C for subsequent analysis. Frozen hearts were pulverized in a stainless steel mortar and pestle bathed in liquid nitrogen. The frozen powder was dissolved and homogenized in lysis buffer [MOPS pH 7.0, 20 mM; EGTA 2 mM; EDTA 5mM; NaF 30 mM; Protease Inhibitor Cocktail (Complete Mini Roche, Roche, Madison WI); Phosphatase Inhibitor Cocktail (Sigma P5726)]. Lysate proteins were quantified using BCA (bicinchoninic acid) reagent (Pierce, Rockford, IL). […] Band densities were analyzed using Image J software (NIH, Bethesda, MD).
(In general: A western blot detects proteins with antibodies after separation by electrophoresis.)

Assay [2] has as its system Tsk−/+ mice. Briefly: Transthoracic echocardiography, posterior wall thickness / heart function. Format: in vivo, mouse.
Description: as §1
Tsk^−/+ and C57BL/6J mice (n = 6) were anesthetized by isoflurane inhalation (1.50%) and oxygen. They were place on a warming platform supine position. A VisualSonics Vevo 770 high-resolution imaging system (Toronto, Canada) equipped with a 30-MHz transducer (Scanhead RMV 707) was used to perform the transthoracic echocardiography. Two-dimensional guided M-mode LV dimensions were measured and posterior wall thickness was analyzed.

Assay [3] concerns Tsk−/+ mice. The note with it: 1 mg/kg/d, 6–8 weeks; cited from earlier work. An excerpt:
One of the reasons that we felt 4F decreased inflammation by a mechanism(s) other than those mediated by HDL function, was the extreme differences in the histopathology of the hearts from untreated and 4F treated Tsk^−/+ mice. Untreated Tsk^−/+ hearts contained much higher levels of oxidized phospholipids, and autoantibodies against oxidized lipids than control hearts. In addition, untreated Tsk^−/+ hearts were also more fibrotic and expressed more angiostatin than control hearts, which likely contributed to the notable losses in angiogenic potential in the hearts of these mice. Wh ...

Assay [4] relates to TNFα, Il-6, and Il-1. The note with it: cited from earlier work. From the text:
The purpose of this study was to investigate an alternative mechanism for 4F decreasing myocardial inflammation in Tsk^−/+mice. While our previous report focused on 4F’s ability to decrease inflammation by improving HDL function, the current study determines the effects of 4F on IRF5. We chose to investigate this potential mechanism for two important reasons. […] These inflammatory mediators are all gene products of IRF5 [9], [29]. Second, genetic links between IRF5 and SSc have been ide ...

The subject of assay [5] is IRF5. Briefly: IRF5 positive nuclei, immunofluorescence of heart sections. In kind it is in vivo, mouse. Conditions: 4F 1 mg/kg/d, sc; Tsk−/+ heart sections, confocal; ratio IRF5 labeled nuclei to total nuclei; p<0.05, n = 3.
Description: as §1
Hearts were harvested from mice, flash frozen and imbedded in OCT and cut into 10 µm sections. Frozen sections were fixed for 10 minutes in PBS containing 1% paraformaldehyde. Cell membranes were permeabilized by incubation in PBS containing 0.5% Triton-X for 5 min at room temperature. The sections were washed once in PBS (5 min) and incubated in PBS containing mouse monoclonal anti-IRF5 antibody (Santa Cruz, 1∶50 concentration) for 30 min at 37°C. Unbound anti-IRF5 antibody was washed free from the sections with PBS and the slides incubated with the appropriate Alexa 488-conjugated secondary antibody (Invitrogen, Carlsbad, CA) for 30 min at 37°C. […] Sections were mounted in aqueous mounting media and analyzed by confocal microscopy, [17].

For assay [6], the system named is HDL. Conditions: proposed mechanism; cited from earlier work. From the text:
(§2) Although there is much support for the idea that 4F inhibits atherosclerosis by improving HDL function, the mechanism by which 4F decreases inflammation has not been identified completely. […] During the course of our studies for our report, [3], we found the anti-inflammatory effects of 4F on the Tsk^−/+ mice to be so profound that it was ...

The conditions of assay [7]: cited from earlier work.
Description: as §2

“Also recorded” adds a separate entry of the source.

As for Ac-DWFKAFYDKVAEKFKEAF-NH2 [4F], the “reduction of IRF5 in Tsk−/+ hearts (band density)” value in assay [1] (6 weeks, vs untreated Tsk−/+ hearts) was found to be 78%. Besides, the “myocardial IRF5 expression (in words)” value in assay [1] (6–8 weeks, Tsk−/+ hearts) is “decrease IRF5 in Tsk^−/+ hearts; also recorded: markedly decreased IRF5 expression in Tsk^−/+ hearts; also recorded: markedly decrease IRF5 expression in Tsk^−/+ myocardium; also recorded: decreases myocardial expression of IRF5; also recorded: decreases IRF5 levels and activation in the Tsk^−/+ mouse hearts”. Also, the posterior wall thickness entry in assay [2] (4F 1 mg/kg/d, sc, 6–8 weeks, 4F-treated Tsk−/+ vs untreated Tsk−/+ mice, p<0.05, n = 6, M-mode echocardiography, isoflurane) was “significantly increased in Tsk^−/+ compared to C57Bl/6J (control) and Tsk^−/+ mice with 4F treatment; also recorded: significantly higher in the Tsk^−/+ mice compared to C57Bl/6J and Tsk^−/+ mice treated with 4F; also recorded: significantly improved”. Also, the “onset of heart failure” value in assay [2] (4F treatment of Tsk−/+ mice (Figure 1)) is on record as “appear to delay the onset of heart failure in Tsk^−/+ mice”. Also, the “oxidized phospholipids and autoantibodies against oxidized phospholipids in hearts” value in assay [3] was “essentially eliminated oxidized phospholipids, and autoantibodies against oxidized phospholipids from the hearts”. In assay [4], the “expression of TNFα, Il-6, and Il-1” value is “decreases expression of TNFα, Il-6, and Il-1”. Also, the “IRF5 nuclear localization / IRF5 positive nuclei” value in assay [5] was “decreased both measurements in Tsk^−/+ hearts; also recorded: marked decreases in IRF-5 nuclear localization; also recorded: significantly more nuclear labeling in Tsk^−/+ hearts compared to C57BL/6J hearts and hearts from Tsk^−/+ mice treated with 4F; also recorded: decrease IRF5 expression, activation, nuclear translocation”. Further, in assay [6], the “preβ HDL formation and HDL-dependent cholesterol efflux” value is “formation of preβ HDL with improved HDL-dependent cholesterol efflux”; the reverse cholesterol transport result is reported as “improvements in reverse cholesterol transport”. Moreover, the “affinity for oxidized versus native lipids” value in assay [7] is “greater affinity for oxidized rather than native lipids”.
